Assay type in all cases: functional
The target in assay [1] is T1, Steroid hormone receptor ERR2 (Homo sapiens) (UniProt O95718).
T1 sequence (whole entry): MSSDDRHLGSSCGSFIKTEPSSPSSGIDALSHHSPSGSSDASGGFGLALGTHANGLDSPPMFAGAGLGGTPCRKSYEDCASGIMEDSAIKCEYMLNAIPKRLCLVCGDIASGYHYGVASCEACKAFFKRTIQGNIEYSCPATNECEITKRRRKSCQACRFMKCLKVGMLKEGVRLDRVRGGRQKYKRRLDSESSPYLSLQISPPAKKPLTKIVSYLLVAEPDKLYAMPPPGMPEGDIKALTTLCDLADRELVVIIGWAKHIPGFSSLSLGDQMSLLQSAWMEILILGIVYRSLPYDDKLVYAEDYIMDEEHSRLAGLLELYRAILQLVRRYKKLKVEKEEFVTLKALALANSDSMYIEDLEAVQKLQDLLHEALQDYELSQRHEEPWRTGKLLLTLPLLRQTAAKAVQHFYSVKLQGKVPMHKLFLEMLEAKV
The experiment in a line: Fold activation of estrogen-related receptor beta at 100 nM in cell-based reporter gene assay.

Assay [2] has as its target T2, Steroid hormone receptor ERR1 (Homo sapiens) (UniProt P11474).
T2 sequence (whole entry): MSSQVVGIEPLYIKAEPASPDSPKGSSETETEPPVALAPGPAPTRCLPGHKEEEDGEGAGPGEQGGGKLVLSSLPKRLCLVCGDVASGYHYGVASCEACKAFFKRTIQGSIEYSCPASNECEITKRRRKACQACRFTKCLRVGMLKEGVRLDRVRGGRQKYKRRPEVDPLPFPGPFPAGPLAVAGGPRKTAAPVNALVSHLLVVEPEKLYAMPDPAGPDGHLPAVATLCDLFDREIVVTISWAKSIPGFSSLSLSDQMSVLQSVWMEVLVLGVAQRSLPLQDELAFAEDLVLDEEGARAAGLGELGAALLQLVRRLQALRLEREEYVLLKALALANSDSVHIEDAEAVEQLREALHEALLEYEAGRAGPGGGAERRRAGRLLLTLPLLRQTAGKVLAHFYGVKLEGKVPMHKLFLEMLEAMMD
The experiment in a line: Fold activation of estrogen-related receptor alpha at 100 nM in cell-based reporter gene assay. In general terms: A reporter such as luciferase makes a cellular process visible.

Assay [3] addresses T3, Estrogen-related receptor gamma (Homo sapiens) (UniProt P62508).
T3 sequence (whole entry): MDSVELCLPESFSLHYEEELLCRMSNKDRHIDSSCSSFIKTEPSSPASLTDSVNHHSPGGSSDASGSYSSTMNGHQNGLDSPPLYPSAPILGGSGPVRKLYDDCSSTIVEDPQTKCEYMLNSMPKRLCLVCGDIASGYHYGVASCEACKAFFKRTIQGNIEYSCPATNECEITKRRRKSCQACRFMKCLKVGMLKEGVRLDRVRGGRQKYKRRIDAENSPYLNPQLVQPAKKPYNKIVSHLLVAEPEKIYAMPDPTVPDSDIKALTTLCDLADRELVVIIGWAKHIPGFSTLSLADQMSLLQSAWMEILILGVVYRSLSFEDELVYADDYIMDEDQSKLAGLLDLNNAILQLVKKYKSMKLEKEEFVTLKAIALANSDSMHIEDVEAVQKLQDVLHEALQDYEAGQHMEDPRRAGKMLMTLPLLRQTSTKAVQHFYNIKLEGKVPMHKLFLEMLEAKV
The experiment in a line: Fold activation of estrogen-related receptor gamma at 100 nM in cell-based reporter gene assay.

We go through one compound from ChEMBL document CHEMBL1141994, “Identification of an agonist ligand for estrogen-related receptors ERRbeta/gamma” (Bioorg Med Chem Lett, 2005).

On to `C[C@]12CC[C@@H]3c4ccc(O)cc4CC[C@H]3[C@@H]1CC[C@@H]2O`, for which the Activity in assay [1] amounted to 1; in assay [2], 1.1; in assay [3], 0.8.
